US20240043927A1, “METHOD FOR IDENTIFYING SUBSTANCE CAPABLE OF AFFECTING AGING” (ZHEJIANG BAISHOUKANGDI CO., LTD., priority 2019, published 2024)

Experiments:
Zip11 [1] = experiment: Zip11 mRNA expression in human cells treated with vitamins; assay type: cell-based; conditions: Human HEK293 and HT1080 cells, treated 24 hours; vitamin B3 10, 50, 100 μM; vitamin B12 1, 10, 50 μM; vitamin C 10, 100, 500 μM
Experimental: Human HEK293 and HT1080 cells were treated for 24 hours respectively at different concentrations of vitamin B3 (10 μM, 50 μM, 100 μM), vitamin B12 (1 μM, 10 μM, 50 μM) and vitamin C (10 μM, 100 μM, 500 μM). The relative expression quantity of Zip11 mRNA was detected.

ZIP11 [2] = experiment: ZIP11 expression in liver of wild-type mice injected with concanavalin A (RT-PCR); assay type: in vivo, mouse; conditions: wild-type C57BL/6 mice, 10 mg/kg through the tail vein, after 18 hours
Experimental: The wild-type C57BL/6 mice were divided into two groups. An experimental group was injected with 10 mg/kg concanavalin (ConA) through the tail vein.

Compound	relative expression quantity of Zip11 mRNA (Zip11 [1])	expression level of ZIP11 in liver tissue (RT-PCR, β-actin as reference) (ZIP11 [2])
O=C(O)c1cccnc1 [vitamin B3]	increase the expression level of Zip11	
O=C1O[C@H]([C@@H](O)CO)C(O)=C1O [vitamin C]	increase the expression level of Zip11	
Concanavalin A [ConA]		decrease the level of ZIP11
vitamin B12	increase the expression level of Zip11	
